{
  "source": "patent US11541018B2",
  "about": "(priority 2016, dated 2023)",
  "origin": "cited, not measured here",
  "key": {"[1]": {"conditions": "active agent (base)"}, "[2]": {"conditions": "active agent (base)", "remark": "listed apart in the source"}},
  "data": [
    {"substance": "ropinole", "values": [
      {"measurement": "Water solubility", "setting": "[1]", "value": 133, "unit": "mg/mL"},
      {"measurement": "LogP", "setting": "[2]", "value": 2.7}
    ]}
  ]
}
